The values that follow come from patent EP0728482A2, “Use of hcp specific compounds to enhance erythropoiesis” (SMITHKLINE BEECHAM CORPORATION, priority 1995, dated 1996).

The target of this test is T1, human src SH2 domain (Homo sapiens, UniProt P12931).
T1 construct: made in house; host or cells: E. coli AR120
In words: ELISA-based SH2 domain / pY peptide binding assay, src SH2 domain. The method, then: The inhibitory activity of compounds at the different human SH2 domains was determined in vitro using SH2 domains expressed as fusion proteins in E. coli. The SH2 domains used herein were the human forms of the src SH2 domain, Grb2 SH2 domain, lck SH2 domain, fyn SH2 domain, SH-PTP2 SH2 domain, p85 SH2 domain and hcp SH2 domain.
The fusion proteins containing the src, lck and hcp SH2 domains were expressed as the general sequence: DET1-DET2-spacer-ek-SH2, where DET1, DET2, spacer, ek and SH2 are as described below. DET1 ("defined epitope tag 1") (SEQ ID NO: 1) is an 11 amino acid sequence found in the Human Immunodeficiency Virus Type 1 (HIV-1) envelope protein gp120 (or gp160). Monoclonal antibodies to various epitopes of HIV-1 gp120 (or gp 160) are known in the art, see, for example U.S. Patent 5,166,050. One preferred example is monoclonal antibody 178.1 (see, e.g., Thiriart et al., J. Immunol., 143:1832-1836 (1989)), which was prepared by immunization of mice with a yeast-expressed HIV-1 gp160 molecule from strain BH10 (Ratner et al., Nature, 313:277-284 (1985)). This tag was used for detection of expression (by Western blot), for purification of the protein (by affinity chromatography), and for configuring assays in which the fusion protein was captured or immobilized using the 178.1 antibody. DET2 is a hexa-histidine sequence tag (SEQ ID NO: 2) which binds to nickel-containing resins and was used for purification purposes. Spacer (SEQ ID NO: 3) was utilized to design a BamH1 restriction site at the indicated position of the construct. The term -ek-refers to a recognition sequence (SEQ ID NO: 4) for the enterokinase protease which provides for the optional removal of the tags from the SH2 domain, thus producing an SH2 domain that contains no extraneous amino acids. SH2 domains which contain no extraneous amino acids are preferable to tagged protein for crystallography studies. SH2 refers to the SH2 domains of different proteins.
Procedure 2: Cloning, expression and purification of human src SH2 domain containing tags and an enterokinase proteolytic cleavage site (DET1-DET2-spacer-ek-src SH2).
A DNA sequence encoding protein ek-src SH2 was PCR amplified from a cDNA clone containing the human src gene (c-src SH2 DNA sequence identical to that described in Takeya,T. and Hanafusa, H, 1983 Cell 32:881-890) using the following primers: [formula]
The PCR product was digested with BamHI and XbaI, followed by isolation of the digested fragment on an agarose gel. The fragment was ligated into BamHI-XbaI-digested expression vector containing the tagged chicken src gene DET1-DET2-spacer-SH2 described in Procedure 1 above. In that vector, the BamHI site is located between the coding regions for DET2 and SH2, and the XbaI site is located after the 3' end of the SH2 coding region. The ligation reaction was used to transform E. coli MM294cI^+. The construct DET1-DET2-spacer-ek-src SH2 was confirmed by DNA sequencing (SEQ ID NO: 5) and induced in E. coli strain AR120 as described in Procedure 1 above. A Coomassie-Blue-stained, Western-blot-positive induced protein band with an apparent molecular weight of 16,000 was observed after nalidixic acid induction.
Cells were lysed at neutral pH by sonication in the presance of lysozyme. After centrifugation, the soluble extract was chromatographed on a Ni^++NTA column. After washing the column with equilibration buffer (Tris buffer pH 8 containing 0.5 M Nacl) and the same buffer containing 15 mM imidazole, the protein was eluted in highly purified form with 25 mM imidazole in equilibration buffer.
The binding assays for the SH2 domains and pY peptides were performed in an ELISA-based 96 well plate assay. […]

T1 sequence (P12931 148-251): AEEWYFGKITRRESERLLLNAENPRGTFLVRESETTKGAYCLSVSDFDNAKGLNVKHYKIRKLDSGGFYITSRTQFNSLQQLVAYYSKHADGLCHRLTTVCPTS

`CCCCCCNC(=O)[C@H]1CC[C@H](CNC(=O)c2ccc(C(=O)c3ccc(C(=O)O)cc3)cc2)CC1` [Compound 6, 4-carboxy-benzophenone-4-carboxamido-trans-4-methyl-cyclohexyl-N-hexyl carboxamide]: the Ki (Ki calculated from IC50 with the expanded equation) was 13 µM. For the setting “inhibition of binding of 0.1 uM biotinylated pY peptide to SH2 domain fusion protein”, this compound displayed an IC50 of 20 µM.
